Laboratory results: US20080004290A1, “Anti-Cancer Agents” (THE UNIVERSITY OF QUEENSLAND, priority 2003, published 2008)
Like-named read-outs stand apart in the source and are kept apart here.

Tests used:
[1] = tested on: NFF, neonatal foreskin fibroblasts; assay: Cell survival assay (clonogenic survival, SRB), normal cells; assay type: cell-based, human; details: SRB
Protocol: (§1) The cytotoxicities of the compounds of the invention were determined by clonogenic survival of human cancer cells (MM96L, melanoma) and human normal cells (NFF, neonatal foreskin fibroblasts). Cells were incubated with the compounds at various concentrations of compound (0.01-10 μg/mL) for 24 hours, washed, and then grown for a further four days in the absence of hydroxamic acid before determining cell survival by cell count. The final readout involved staining with sulforhodamine B (SRB), a cost-effective method amenable to automation and high throughput analysis. At the technical level, “cell sensitivity” is often inferred from short term (1-2 day) observations such as apoptosis, which may not be a satisfactory model of clonogenic survival.
(§2) Cell Lines and Culture Medium. All cell lines used in this study have been described previously (Parsons et al., 1986; Todaro et al., 1980; Glenn et al., 2004). All cell lines were cultured in 10% heat-inactivated foetal calf serum (CSL, Australia) in RPMI 1640 medium supplemented with 100 U/mL penicillin, 100 μg/mL streptomycin, and 3 mM HEPES at 5% CO2, 99% humidity at 37° C. Primary human fibroblasts were obtained from neonatal foreskins and cultured in the above medium. Routine mycoplasma tests were performed using Hoechst stain^i and were always negative.
(§3) Cell Survival Assay. Cells were plated into 96-well microtitre plates at 5×10^3 cells/well, and allowed to adhere overnight. Test compounds were added to culture medium at the indicated concentrations, and plates incubated in the above conditions for 24 hours. Following this incubation period, compounds and media were removed, and replaced with fresh culture medium. Cells were then grown for a further 72 hours before assay using sulforhodamine B (SRB; Sigma, St. Louis, Mo.) as previously described. Briefly, the culture medium was removed from the 96-well microtitre plates and the plates washed twice with phosphate buffered saline (PBS), before the cells were fixed with methylated spirits for 15 minutes. The plates were then rinsed with tap water and the fixed cells stained with 50 μL/well of SRB solution (0.4% sulforhodamine B (w/v) in 1% (v/v) acetic acid) over a period of 1 hour. The SRB solution was then removed from the wells and the plates rapidly washed two times with 1% (v/v) acetic acid. Protein bound dye was then solubilised with the addition of 100 μL of 10 mM unbuffered Tris, and incubated for 15 min at 25° C. Plates were then read at 564 nm on a VERSA max tunable microplate reader (Molecular Devices, Sunnyvale, Calif.).

MM96L melanoma cells = assay: Cell survival assay (clonogenic survival, SRB); assay type: cell-based, human; details: for SI (Selectivity Index = IC50 (NFF)/IC50 (MM96L)): NFF vs MM96L
Protocol: as §1, §2, §3

[2] = Homo sapiens, Fibroblast, 24 h, Table 6, 24 hours with compound, further growth, read-out: IC50 (μM) NFF
[3] = Homo sapiens, MM96L, 24 h, Table 6, 24 hours with compound, further growth, SRB, read-out: IC50 (μM) MM96L
[4] = Table 6, IC50 (NFF)/IC50 (MM96L)
[5] = Homo sapiens, Fibroblast, NFF normal fibroblasts, 24 h with compound, further 72 h growth, read-out: IC50 (uM) NFF
[6] = Homo sapiens, MM96L, MM96L melanoma, 24 h with compound, further 72 h growth, SRB, read-out: IC50 (uM) MM96L
[7] = Table 5, 24 hours with compound, further growth, read-out: IC50 NFF
[8] = Table 5, 24 hours with compound, further growth, SRB, read-out: IC50 MM96L
[9] = Table 5, Selectivity Index = IC50 (NFF)/IC50 (MM96L)
[10] = Table 8, 24 hours with compound, further growth, read-out: IC50 (μM) NFF
[11] = Table 8, 24 hours with compound, further growth, SRB, read-out: IC50 (μM) MM96
[12] = Table 8, IC50 (NFF)/IC50 (MM96L)

Question: With `CN(C)c1ccc(C(=O)N[C@@H](CSCCCC(=O)NO)C(=O)NC23CC4CC(CC(C4)C2)C3)cc1` [Example 92] as the molecule, how does the IC50 [1, 2] read?
Answer: The IC50 was 7.1 ± 0.5 µM.

Question: And the IC50 (MM96L melanoma cells; [3])?
Answer: Its IC50 is 1.48 ± 0.08 µM.

Question: What about the Selectivity (MM96L melanoma cells; [4]) of the same molecule?
Answer: Its Selectivity is 4.8.

Question: Which results are given for `O=C(CCCCC[C@H](NC(=O)c1ccc([N+](=O)[O-])cc1)C(=O)NCc1ccccc1)NO` (racemic) [Example 135]?
Answer: IC50 [1, 5]: 9 ± 2 µM; IC50 (MM96L melanoma cells; [6]): 6 ± 1 µM; SI (Selectivity Index = IC50 (NFF)/IC50 (MM96L)) (MM96L melanoma cells): 1.5

Question: What does the source list for `O=C(CCCCC[C@H](NC(=O)Cc1ccc(-c2ccccc2)cc1)C(=O)NCc1ccccc1)NO` [Example 140]?
Answer: IC50 [1, 5]: 5.13 µM; IC50 (MM96L melanoma cells; [6]): 2.36 µM; SI (Selectivity Index = IC50 (NFF)/IC50 (MM96L)) (MM96L melanoma cells): 2.2

Question: For `O=C(CCCSC[C@H](NC(=O)CCCc1ccccc1)C(=O)NCc1ccccc1)NO` [Example 49], which IC50 [1, 7] is on record?
Answer: The IC50 was 11 ± 2 µM.

Question: And the IC50 (MM96L melanoma cells; [8])?
Answer: Its IC50 is 5 ± 1 µM.

Question: And the Selectivity (MM96L melanoma cells; [9])?
Answer: Its Selectivity is 2.2.

Question: What does the source list for `COc1ccc(CCC(=O)N[C@@H](CSCCCC(=O)NO)C(=O)NCc2ccccc2)cc1` [Example 47]?
Answer: IC50 [1, 7]: 16 ± 1 µM; IC50 (MM96L melanoma cells; [8]): 8 ± 1 µM; Selectivity (MM96L melanoma cells; [9]): 2.0

Question: Which results are given for `CN(C)c1ccc(C(=O)N[C@@H](CCCCCC(=O)NO)C(=O)NC2(Cc3ccccc3)CCCC2)cc1` [Example 128]?
Answer: IC50 [1, 5]: 3 ± 0.3 µM; IC50 (MM96L melanoma cells; [6]): 0.9 ± 0.2 µM; SI (Selectivity Index = IC50 (NFF)/IC50 (MM96L)) (MM96L melanoma cells): 3.5

Question: What does the source list for `C/C=C/C(=O)N[C@@H](CSCCCC(=O)NO)C(=O)NCc1ccccc1` [Example 52]?
Answer: IC50 [1, 7]: > 100 µM; IC50 (MM96L melanoma cells; [8]): 11 ± 0.7 µM; Selectivity (MM96L melanoma cells; [9]): >9

Question: Which results are given for `CN(C)c1ccc(C(=O)N[C@@H](CSCCCC(=O)NO)C(=O)NCc2ccc(C(=O)Nc3ccc4ncccc4c3)cc2)cc1` [Example 116]?
Answer: IC50 [1, 10]: 5.57 µM; IC50 (MM96L melanoma cells; [11]): 2.23 µM; Selectivity (MM96L melanoma cells; [12]): 2.5

Question: Which IC50 [1, 5] does the source give for `O=C(CCCCC[C@H](NC(=O)c1cc2c(O)cccc2[nH]1)C(=O)NCc1ccccc1)NO` [Example 166] here?
Answer: Its IC50 is 2.21 µM.

Question: And the IC50 (MM96L melanoma cells; [6])?
Answer: Its IC50 is 0.331 µM.

Question: And the IC50 (MM96L melanoma cells; Homo sapiens, MM96L, most preferred compounds, exemplary examples, read-out: potency of IC50 against the MM96 melanoma cells)?
Answer: The IC50 was at most 0.5 µM.

Question: What about the “SI (Selectivity Index = IC50 (NFF)/IC50 (MM96L))” value (MM96L melanoma cells) of the same molecule?
Answer: Its value is 6.7.

Question: With `O=C(CCCCC[C@H](NC(=O)c1ccc(Br)cc1)C(=O)NCc1ccccn1)NO` [Example 157] as the molecule, how does the IC50 [1, 5] read?
Answer: Its IC50 is 2.09 µM.

Question: And the IC50 (MM96L melanoma cells; [6])?
Answer: Its IC50 is 1.15 µM.

Question: And the “SI (Selectivity Index = IC50 (NFF)/IC50 (MM96L))” value (MM96L melanoma cells)?
Answer: The value was 1.8.

Question: With `CC(C)CCNC(=O)C(CCCCCC(=O)NO)NC(=O)c1ccco1` (racemic) [Example 144] as the molecule, how does the IC50 ([1]; NFF normal fibroblasts, 24 h with compound, further 72 h growth, read-out: IC50 (uM) NFF) read?
Answer: Its IC50 is 4.4 ± 0.5 µM.

Question: What about the IC50 (MM96L melanoma cells; MM96L melanoma, 24 h with compound, further 72 h growth, SRB, read-out: IC50 (uM) MM96L) of the same molecule?
Answer: Its IC50 is 1.5 ± 0.2 µM.

Question: And the “SI (Selectivity Index = IC50 (NFF)/IC50 (MM96L))” value (MM96L melanoma cells)?
Answer: The value was 2.9.

Question: Which results are given for `CN(C)c1ccc(C(=O)N[C@@H](CSCCCC(=O)NO)C(=O)NCc2ccc(C(=O)Nc3ccc4cn[nH]c4c3)cc2)cc1` [Example 114]?
Answer: IC50 [1, 10]: 12.2 µM; IC50 (MM96L melanoma cells; [11]): 1.5 µM; Selectivity (MM96L melanoma cells; [12]): 8.1

Question: With `O=C(CCCSC[C@H](NC(=O)c1ccc2ccccc2c1)C(=O)NCc1ccccc1)NO` [Example 38] as the molecule, how does the IC50 [1, 7] read?
Answer: The IC50 was 1.14 ± 0.05 µM.

Question: And the IC50 (MM96L melanoma cells; [8])?
Answer: The IC50 was 0.6 ± 0.2 µM.

Question: What about the Selectivity (MM96L melanoma cells; [9]) of the same molecule?
Answer: The Selectivity was 1.9.

Question: For `CN(C)c1ccc(NC(=O)[C@H](CCCCCC(=O)NO)NC(=O)OCc2ccccc2)cc1` [Example 151], which IC50 [1, 5] is on record?
Answer: Its IC50 is 0.65 µM.

Question: And the IC50 (MM96L melanoma cells; [6])?
Answer: The IC50 was 0.61 µM.

Question: And the “SI (Selectivity Index = IC50 (NFF)/IC50 (MM96L))” value (MM96L melanoma cells)?
Answer: Its value is 1.1.

Question: For `O=C(CCCSC[C@H](NC(=O)c1ccccc1[N+](=O)[O-])C(=O)NCc1ccccc1)NO` [Example 32], which IC50 [1, 7] is on record?
Answer: Its IC50 is over 100 µM.

Question: And the IC50 (MM96L melanoma cells; [8])?
Answer: The IC50 was 10.6 ± 0.1 µM.

Question: What about the Selectivity (MM96L melanoma cells; [9]) of the same molecule?
Answer: Its Selectivity is over 10.

Question: How did the IC50 [1, 10] turn out when `CN(C)c1ccc(C(=O)N[C@@H](CSCCCC(=O)NO)C(=O)NCc2ccc(C(=O)Nc3ccccc3Cc3ccccc3)cc2)cc1` [Example 120] was run?
Answer: Its IC50 is 2.32 µM.

Question: And the IC50 (MM96L melanoma cells; [11])?
Answer: Its IC50 is 1.02 µM.

Question: What about the Selectivity (MM96L melanoma cells; [12]) of the same molecule?
Answer: Its Selectivity is 2.4.

Question: `CN(C)c1ccc(C(=O)N[C@@H](CSCCCC(=O)NO)C(=O)Nc2ccccc2-c2ccccc2)cc1` [Example 62] was tested. Which IC50 [1, 2] did it give?
Answer: The IC50 was 4.4 ± 0.6 µM.

Question: What about the IC50 (MM96L melanoma cells; [3]) of the same molecule?
Answer: The IC50 was 2.1 ± 0.2 µM.

Question: What about the Selectivity (MM96L melanoma cells; [4]) of the same molecule?
Answer: Its Selectivity is 2.1.

Question: Which IC50 [1, 2] does the source give for `CN(C)c1ccc(C(=O)N[C@@H](CSCCCC(=O)NO)C(=O)NCc2ccncc2)cc1` [Example 80] here?
Answer: The IC50 was 14 ± 1 µM.

Question: And the IC50 (MM96L melanoma cells; [3])?
Answer: The IC50 was 2.2 ± 0.3 µM.

Question: What about the Selectivity (MM96L melanoma cells; [4]) of the same molecule?
Answer: The Selectivity was 6.2.
